Laboratory results reported in the supplement of paper PMC7661543.
± gives the standard deviation of the averaged measurements.

Tested on: BT-20
Assay: relative cell number vs DMSO control (72 h) (% of DMSO); higher = less growth inhibition (more cells)
Settings: sgRNA knockout: sgNT, 1 nM
Description: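 QMAP-Seq: a pool of 5 breast cancer cell lines (ZR-75-1, SKBR3, HCC-38, MDA-MB-231, BT-20), each carrying 12 doxycycline-inducible Cas9 sgRNA perturbations (11 knockouts plus non-targeting sgNT), was treated with compounds for 72 h at four 10-fold doses (10 nM-10 uM or 1 nM-1 uM range). Barcodes were amplified and sequenced, and cell number was interpolated from 293T spike-in standard curves. The result is expressed as % of the median of DMSO wells. Two biological replicates.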

| SMILES | relative cell number |
| --- | --- |
| CC(C)[C@]12O[C@H]1[C@@H]1O[C@]13[C@]1(O[C@H]1C[C@H]1C4=C(CC[C@@]13C)C(=O)OC4)[C@@H]2O [Triptolide] | 93.1 ± 20 |

Same assay, conditions: sgRNA knockout: sgNT, 10 nM

| SMILES | relative cell number |
| --- | --- |
| CC(C)(C)OC(=O)CN(Cc1ccc(Cl)cc1)Cc1ccc([N+](=O)[O-])s1 [GSK4112] | 73.6 ± 2 |
| C=C1C[C@@H]2[C@H](CC[C@]3(C)C(=O)CC[C@@H]23)[C@@]2(C)C=CC(=O)C=C12 [Exemestane] | 99.8 ± 6 |
| COc1cc([C@@H]2c3cc4c(cc3[C@@H](O[C@@H]3O[C@@H]5CO[C@@H](c6cccs6)O[C@H]5[C@H](O)[C@H]3O)[C@H]3COC(=O)[C@H]23)OCO4)cc(OC)c1O [Teniposide] | 98.2 ± 1.9 |
| COc1cccc2cc(-c3nc([C@H]4CC[C@H](C(=O)O)CC4)n4ncnc(N)c34)[nH]c12 [OSI027] | 85.8 ± 7.3 |
| CN(C)C/C=C/C(=O)Nc1cc2c(Nc3ccc(F)c(Cl)c3)ncnc2cc1O[C@H]1CCOC1 [Afatinib] | 117 ± 13 |
| Cc1cnc(-c2cnc(NCCNc3ccc(C#N)cn3)nc2-c2ccc(Cl)cc2Cl)[nH]1 | 110 ± 4.5 |
| O=C(O)CC[C@H]1CC[C@@](c2cc(F)ccc2F)(S(=O)(=O)c2ccc(Cl)cc2)CC1 [MK0752] | 137 ± 39 |
| CC[C@H](C)C(=O)O[C@H]1C[C@@H](C)C=C2C=C[C@H](C)[C@H](CC[C@@H]3C[C@@H](O)CC(=O)O3)[C@H]21 [Lovastatin] | 114 ± 20 |
| NC(=O)Nc1sc(-c2ccc(F)cc2)cc1C(N)=O [TPCA1] | 119 ± 19 |
| C[C@]1(c2nc3c(C(N)=O)cccc3[nH]2)CCCN1 [Veliparib] | 109 ± 41 |
| COc1cc(Nc2ncc3c(n2)-c2ccc(Cl)cc2C(c2c(F)cccc2OC)=NC3)ccc1C(=O)O [Alisertib] | 92.5 ± 23 |
| Cc1cc(N2CCOCC2)cc2[nH]c(-c3c(NC[C@@H](O)c4cccc(Cl)c4)cc[nH]c3=O)nc12 | 70.9 ± 10 |
| Cc1ccc(S(=O)(=O)OCC(=O)Nc2ccc(C(=O)O)c(O)c2)cc1 | 101 ± 26 |
| CC(C)[C@]12O[C@H]1[C@@H]1O[C@]13[C@]1(O[C@H]1C[C@H]1C4=C(CC[C@@]13C)C(=O)OC4)[C@@H]2O [Triptolide] | 94.44 ± 0.19 |
| C#Cc1cccc(Nc2ncnc3cc(OCCOC)c(OCCOC)cc23)c1 [Erlotinib] | 103 ± 8.8 |
| Cc1ccc(C(=O)N(CCCN)[C@@H](c2oc3cc(Cl)ccc3c(=O)c2Cc2ccccc2)C(C)C)cc1 | 29.6 ± 8.5 |
| CS(=O)(=O)N1CCN(Cc2cc3nc(-c4cccc5[nH]ncc45)nc(N4CCOCC4)c3s2)CC1 [GDC0941] | 106 ± 16 |
| Cc1nc(Nc2n[nH]c3c2CN(C(=O)N[C@H](CN(C)C)c2ccccc2)C3(C)C)c2sccc2n1 | 77.3 ± 21 |
| C=CCc1cccc(/C=N/NC(=O)CN2CCN(Cc3ccccc3)CC2)c1O [PAC1] | 92 ± 13 |
| COc1cc2nccc(Oc3ccc(NC(=O)C4(C(=O)Nc5ccc(F)cc5)CC4)cc3)c2cc1OC [Cabozantinib] | 110 ± 3.4 |

Same assay, conditions: sgRNA knockout: sgNT, 100 nM

| SMILES | relative cell number |
| --- | --- |
| CC(C)(C)OC(=O)CN(Cc1ccc(Cl)cc1)Cc1ccc([N+](=O)[O-])s1 [GSK4112] | 111 ± 14 |
| C=C1C[C@@H]2[C@H](CC[C@]3(C)C(=O)CC[C@@H]23)[C@@]2(C)C=CC(=O)C=C12 [Exemestane] | 89.5 ± 1.1 |
| COc1cc([C@@H]2c3cc4c(cc3[C@@H](O[C@@H]3O[C@@H]5CO[C@@H](c6cccs6)O[C@H]5[C@H](O)[C@H]3O)[C@H]3COC(=O)[C@H]23)OCO4)cc(OC)c1O [Teniposide] | 67.9 ± 24 |
| COc1cccc2cc(-c3nc([C@H]4CC[C@H](C(=O)O)CC4)n4ncnc(N)c34)[nH]c12 [OSI027] | 113 ± 1.8 |
| CN(C)C/C=C/C(=O)Nc1cc2c(Nc3ccc(F)c(Cl)c3)ncnc2cc1O[C@H]1CCOC1 [Afatinib] | 66.9 ± 10 |
| Cc1cnc(-c2cnc(NCCNc3ccc(C#N)cn3)nc2-c2ccc(Cl)cc2Cl)[nH]1 | 103 ± 19 |
| O=C(O)CC[C@H]1CC[C@@](c2cc(F)ccc2F)(S(=O)(=O)c2ccc(Cl)cc2)CC1 [MK0752] | 112 ± 41 |
| CC[C@H](C)C(=O)O[C@H]1C[C@@H](C)C=C2C=C[C@H](C)[C@H](CC[C@@H]3C[C@@H](O)CC(=O)O3)[C@H]21 [Lovastatin] | 78.7 ± 11 |
| NC(=O)Nc1sc(-c2ccc(F)cc2)cc1C(N)=O [TPCA1] | 101 ± 34 |
| C[C@]1(c2nc3c(C(N)=O)cccc3[nH]2)CCCN1 [Veliparib] | 116 ± 15 |
| COc1cc(Nc2ncc3c(n2)-c2ccc(Cl)cc2C(c2c(F)cccc2OC)=NC3)ccc1C(=O)O [Alisertib] | 66.5 ± 8 |
| Cc1cc(N2CCOCC2)cc2[nH]c(-c3c(NC[C@@H](O)c4cccc(Cl)c4)cc[nH]c3=O)nc12 | 88.3 ± 11 |
| Cc1ccc(S(=O)(=O)OCC(=O)Nc2ccc(C(=O)O)c(O)c2)cc1 | 115 ± 40 |
| CC(C)[C@]12O[C@H]1[C@@H]1O[C@]13[C@]1(O[C@H]1C[C@H]1C4=C(CC[C@@]13C)C(=O)OC4)[C@@H]2O [Triptolide] | 39.9 ± 12 |
| C#Cc1cccc(Nc2ncnc3cc(OCCOC)c(OCCOC)cc23)c1 [Erlotinib] | 82.9 ± 2.6 |
| Cc1ccc(C(=O)N(CCCN)[C@@H](c2oc3cc(Cl)ccc3c(=O)c2Cc2ccccc2)C(C)C)cc1 | 27.7 ± 4.7 |
| CS(=O)(=O)N1CCN(Cc2cc3nc(-c4cccc5[nH]ncc45)nc(N4CCOCC4)c3s2)CC1 [GDC0941] | 82.9 ± 45 |
| Cc1nc(Nc2n[nH]c3c2CN(C(=O)N[C@H](CN(C)C)c2ccccc2)C3(C)C)c2sccc2n1 | 46 ± 2.4 |
| C=CCc1cccc(/C=N/NC(=O)CN2CCN(Cc3ccccc3)CC2)c1O [PAC1] | 84.1 ± 14 |
| COc1cc2nccc(Oc3ccc(NC(=O)C4(C(=O)Nc5ccc(F)cc5)CC4)cc3)c2cc1OC [Cabozantinib] | 98.3 ± 13 |

Same assay, conditions: sgRNA knockout: sgNT, 1000 nM

| SMILES | relative cell number |
| --- | --- |
| CC(C)(C)OC(=O)CN(Cc1ccc(Cl)cc1)Cc1ccc([N+](=O)[O-])s1 [GSK4112] | 94 ± 20 |
| C=C1C[C@@H]2[C@H](CC[C@]3(C)C(=O)CC[C@@H]23)[C@@]2(C)C=CC(=O)C=C12 [Exemestane] | 103 ± 5.9 |
| COc1cc([C@@H]2c3cc4c(cc3[C@@H](O[C@@H]3O[C@@H]5CO[C@@H](c6cccs6)O[C@H]5[C@H](O)[C@H]3O)[C@H]3COC(=O)[C@H]23)OCO4)cc(OC)c1O [Teniposide] | 51.2 ± 5.6 |
| COc1cccc2cc(-c3nc([C@H]4CC[C@H](C(=O)O)CC4)n4ncnc(N)c34)[nH]c12 [OSI027] | 83.39 ± 0.24 |
| CN(C)C/C=C/C(=O)Nc1cc2c(Nc3ccc(F)c(Cl)c3)ncnc2cc1O[C@H]1CCOC1 [Afatinib] | 82.8 ± 8.8 |
| Cc1cnc(-c2cnc(NCCNc3ccc(C#N)cn3)nc2-c2ccc(Cl)cc2Cl)[nH]1 | 73.6 ± 3.6 |
| O=C(O)CC[C@H]1CC[C@@](c2cc(F)ccc2F)(S(=O)(=O)c2ccc(Cl)cc2)CC1 [MK0752] | 145 ± 3.2 |
| CC[C@H](C)C(=O)O[C@H]1C[C@@H](C)C=C2C=C[C@H](C)[C@H](CC[C@@H]3C[C@@H](O)CC(=O)O3)[C@H]21 [Lovastatin] | 89.9 ± 35 |
| NC(=O)Nc1sc(-c2ccc(F)cc2)cc1C(N)=O [TPCA1] | 102.8 ± 0.57 |
